Where “and” joins values, the source holds several entries; their conditions need not be identical. Equal values may be shown once.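 All cell lines were grown in 96-well plates and treated with compound for 48 hours. GI50: concentration for 50% inhibition of growth. Definition used: TGI = concentration required for complete inhibition of growth.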

Among the test systems are SK-MEL-28 melanoma; HS 578T breast; MALME-3M melanoma; ACHN renal; CCRF-CEM leukemia; NCI/ADR-RES ovarian; OVCAR-3 ovarian; OVCAR-4 ovarian; HOP-92 NSCLC; NCI-H460 lung.
Assay in all cases: NCI tumour cell line growth inhibition, 48 h

On to `NNC(=O)C(O)C(O)C(=O)NN` (stereo not drawn), for which the TGI with SK-MEL-28 melanoma, in the assay on HS 578T breast, in the assay on MALME-3M melanoma, with ACHN renal, with CCRF-CEM leukemia and in the assay on NCI/ADR-RES ovarian was above 100 µM each time. Also, the TGI in the assay with OVCAR-3 ovarian and with OVCAR-4 ovarian was above 100 µM each time.
Take `COc1cc(Cn2c(-c3ccccc3)cc3c2-c2oncc2CC3)cc(OC)c1`: the GI50 is 4.11 µM in the assay on HOP-92 NSCLC; 0.416 µM in the assay on SK-MEL-28 melanoma; 0.333 µM in the assay on NCI-H460 lung; 0.264 µM with HS 578T breast; 0.786 µM in the assay on ACHN renal; 0.337 µM with CCRF-CEM leukemia. Further, the figures for the GI50 in the assay on NCI/ADR-RES ovarian, in the assay with OVCAR-3 ovarian and in the assay on OVCAR-4 ovarian were 0.208 µM, 0.204 µM and 0.664 µM, respectively. In addition, the TGI is above 100 µM in the assay on HOP-92 NSCLC; above 100 µM with SK-MEL-28 melanoma; 5.32 µM with NCI-H460 lung; 50.1 µM in the assay with HS 578T breast; above 100 µM in the assay with ACHN renal; above 100 µM in the assay with CCRF-CEM leukemia. Besides, the results for the TGI in the assay on OVCAR-3 ovarian and in the assay with OVCAR-4 ovarian were 0.477 µM and above 100 µM, respectively.
For the compound `O=C(/C=C/c1ccccc1)CCC1C(=O)NC(=S)NC1=O`, the TGI in the assay on HOP-92 NSCLC, with SK-MEL-28 melanoma, in the assay on NCI-H460 lung, with HS 578T breast, in the assay with ACHN renal and in the assay on NCI/ADR-RES ovarian was above 100 µM in each case. Also, the TGI in the assay on OVCAR-3 ovarian is above 100 µM.
For `Cc1c2ccncc2c(C)c2c1[nH]c1ccc(Cl)cc12`, the GI50 with HOP-92 NSCLC is 6.56 µM and 1.93 µM; in the assay on SK-MEL-28 melanoma, 1.93 µM; in the assay with NCI-H460 lung it was 3.08 µM; in the assay on MALME-3M melanoma, 3.63 µM; in the assay with OVCAR-3 ovarian it was 4.62 µM; in the assay on OVCAR-4 ovarian, 2.42 µM. Moreover, the TGI in the assay with HOP-92 NSCLC was 17.5 µM and 9.11 µM; with SK-MEL-28 melanoma, 13.3 µM and 3.67 µM; with NCI-H460 lung, 4.46 µM and 12.2 µM; with MALME-3M melanoma it was 14.3 µM and 15.2 µM; in the assay on ACHN renal it was 13.1 µM; in the assay on CCRF-CEM leukemia, 4.43 µM and 6.3 µM. Also, the TGI in the assay on NCI/ADR-RES ovarian was 4.75 µM; in the assay with OVCAR-3 ovarian, 5.71 µM and 16.6 µM; in the assay with OVCAR-4 ovarian, 5.45 µM and 13.4 µM.
In the case of `Nc1ccn(C2OC(C(OC3OC(CO)C(O)C(N)C3O)C(O)C(O)C(O)C(O)CO)C(N)C(O)C2O)c(=O)n1` (stereo not drawn), the TGI in the assay on HOP-92 NSCLC was 24.6 µM; with SK-MEL-28 melanoma, above 100 µM; in the assay with NCI-H460 lung, above 100 µM; in the assay with HS 578T breast, 7.27 µM; in the assay with ACHN renal, above 100 µM; with CCRF-CEM leukemia, above 100 µM. Also, the TGI is above 100 µM with NCI/ADR-RES ovarian, 86.6 µM in the assay with OVCAR-3 ovarian and 14.8 µM with OVCAR-4 ovarian.
For the compound `COc1cc2c(cc1OCCCOc1ccc(-c3nc4ccc(N5CCN(C)CC5)cc4[nH]3)cc1)N=C[C@@H]1CCCN1C2=O`, the GI50 is below 0.01 µM in the assay on SK-MEL-28 melanoma; below 0.01 µM with NCI-H460 lung; below 0.01 µM in the assay on HS 578T breast; below 0.01 µM in the assay on MALME-3M melanoma; below 0.01 µM with CCRF-CEM leukemia; below 0.017 µM with NCI/ADR-RES ovarian. The GI50 in the assay on OVCAR-3 ovarian and with OVCAR-4 ovarian was below 0.01 µM throughout. The TGI was 54.5 µM in the assay with SK-MEL-28 melanoma; below 0.0505 µM with NCI-H460 lung; below 0.01 µM in the assay on HS 578T breast; below 0.01 µM with MALME-3M melanoma; 2.33 µM with CCRF-CEM leukemia; 0.161 µM with NCI/ADR-RES ovarian. Further, the TGI with OVCAR-3 ovarian is below 0.01 µM; in the assay with OVCAR-4 ovarian, 17.2 µM.
In the case of `CC1=C(N2CC2)C(=O)c2ccccc2C1=O`, the TGI in the assay on SK-MEL-28 melanoma turned out to be 4.33 µM; in the assay with NCI-H460 lung, 2.39 µM; in the assay on HS 578T breast, 4.89 µM; with MALME-3M melanoma, 2.65 µM; in the assay on ACHN renal it was 1.07 µM; in the assay on CCRF-CEM leukemia, 15.5 µM. Further, the TGI worked out at 3.14 µM in the assay on NCI/ADR-RES ovarian, 2.89 µM in the assay with OVCAR-3 ovarian and 7.36 µM in the assay on OVCAR-4 ovarian.
For `COc1cc(/C=N/NC(=O)c2ccccc2Nc2cccc(C(F)(F)F)c2)cc(OC)c1OC`, the GI50 in the assay on SK-MEL-28 melanoma is 2.28 µM; in the assay on NCI-H460 lung, 2.3 µM; in the assay with HS 578T breast, 0.971 µM; in the assay with MALME-3M melanoma it was 1.75 µM; in the assay on ACHN renal, 3.3 µM; in the assay on CCRF-CEM leukemia, 1.03 µM. Further, the GI50 with NCI/ADR-RES ovarian was 3.87 µM; with OVCAR-3 ovarian, 0.797 µM; with OVCAR-4 ovarian, 3.37 µM. In addition, the TGI in the assay with SK-MEL-28 melanoma is 8.16 µM; in the assay with NCI-H460 lung, 6.33 µM; with HS 578T breast it was 6.6 µM; in the assay with MALME-3M melanoma it was 8.45 µM; in the assay with ACHN renal, 13.3 µM; with CCRF-CEM leukemia, 4.33 µM. For the same compound, the TGI with NCI/ADR-RES ovarian was determined as 14.4 µM; in the assay on OVCAR-3 ovarian it was 2.33 µM; with OVCAR-4 ovarian, 15.2 µM.
With `Cc1ccc(S(=NS(=O)(=O)c2ccc(C)cc2)c2ccc(C)cc2)cc1`, the TGI in the assay with HOP-92 NSCLC, with SK-MEL-28 melanoma, in the assay on NCI-H460 lung, in the assay on MALME-3M melanoma, in the assay on ACHN renal and in the assay on CCRF-CEM leukemia was above 100 µM each time. The TGI in the assay on NCI/ADR-RES ovarian and with OVCAR-3 ovarian was above 100 µM throughout.
With `CCN(CC)Cc1cc(Nc2c3ccccc3nc3cc(Cl)ccc23)ccc1O`, the GI50 in the assay with HOP-92 NSCLC was 1.41 µM; in the assay on SK-MEL-28 melanoma it was 1.79 µM; in the assay with NCI-H460 lung, 1.62 µM; in the assay with HS 578T breast, 2.26 µM; in the assay on MALME-3M melanoma, 1.94 µM; in the assay on ACHN renal, 1.47 µM. The GI50 is 2.59 µM in the assay with CCRF-CEM leukemia, 1.74 µM in the assay with OVCAR-3 ovarian and 1.18 µM in the assay with OVCAR-4 ovarian. The TGI with HOP-92 NSCLC was determined as 3.13 µM; in the assay on SK-MEL-28 melanoma, 3.2 µM; with NCI-H460 lung it was 4.8 µM; with HS 578T breast, 6.24 µM; with MALME-3M melanoma, 3.58 µM; in the assay on ACHN renal it was 2.97 µM. The TGI with CCRF-CEM leukemia was above 100 µM; in the assay on OVCAR-3 ovarian, 3.28 µM; in the assay on OVCAR-4 ovarian it was 2.43 µM.
For the compound `CC(C(N)=O)N(C)C(=O)c1cnc2ccccc2c1` (stereo not drawn), the TGI in the assay with HOP-92 NSCLC, in the assay on SK-MEL-28 melanoma, with NCI-H460 lung, with MALME-3M melanoma, with ACHN renal and with CCRF-CEM leukemia was above 100 µM throughout. Besides, the TGI in the assay on NCI/ADR-RES ovarian, with OVCAR-3 ovarian and with OVCAR-4 ovarian was above 100 µM each time.
Consider `Cc1cc2nc(-c3c(F)cccc3Cl)n(Cc3c(F)cccc3Cl)c2cc1C`, for which the GI50 was 14 µM in the assay with HOP-92 NSCLC; 24.8 µM in the assay with SK-MEL-28 melanoma; 6.32 µM in the assay with NCI-H460 lung; 15.8 µM in the assay with HS 578T breast; 14.5 µM in the assay with ACHN renal; 2.6 µM with CCRF-CEM leukemia. In addition, the GI50 is 12.5 µM with NCI/ADR-RES ovarian and 19 µM in the assay with OVCAR-4 ovarian. Besides, the TGI was 33.5 µM in the assay with HOP-92 NSCLC; 55.2 µM in the assay on SK-MEL-28 melanoma; 30.9 µM in the assay with NCI-H460 lung; 48.4 µM with HS 578T breast; 45.6 µM with ACHN renal; above 100 µM with CCRF-CEM leukemia. The TGI in the assay on NCI/ADR-RES ovarian worked out at 26.3 µM; in the assay on OVCAR-4 ovarian, 74.1 µM.
As to `CNC(c1ccncc1)C(NC)c1ccncc1` (stereo not drawn), the TGI with SK-MEL-28 melanoma, in the assay with HS 578T breast, in the assay on MALME-3M melanoma, in the assay with ACHN renal, in the assay with CCRF-CEM leukemia and in the assay with NCI/ADR-RES ovarian was above 100 µM in each case. Besides, the TGI in the assay on OVCAR-3 ovarian and with OVCAR-4 ovarian was above 100 µM each time.
With `NS(=O)(=O)c1ccc(NC(=O)c2cccc(NC3=C(Cl)C(=O)N(Cc4ccccc4)C3=O)c2)cc1`, the GI50 in the assay with HOP-92 NSCLC is 8.09 µM; with SK-MEL-28 melanoma, 20 µM; in the assay with NCI-H460 lung, 10.5 µM; in the assay with HS 578T breast, 7.92 µM; with ACHN renal it was 14.7 µM; in the assay with CCRF-CEM leukemia it was 2.82 µM. Besides, the GI50 in the assay on OVCAR-3 ovarian is 12.4 µM; in the assay with OVCAR-4 ovarian, 35.7 µM. For the same compound, the TGI was 31.1 µM with HOP-92 NSCLC; 42.9 µM in the assay with SK-MEL-28 melanoma; 25.6 µM in the assay on NCI-H460 lung; 36.7 µM in the assay on HS 578T breast; 33.2 µM with ACHN renal; 8.17 µM in the assay on CCRF-CEM leukemia. The TGI with OVCAR-3 ovarian was 27 µM; in the assay with OVCAR-4 ovarian, above 100 µM.
As for `CCCOC(=O)C1C2CCC(O2)C1C(=O)O` (stereo not drawn), the TGI in the assay with SK-MEL-28 melanoma, in the assay with HS 578T breast, in the assay with MALME-3M melanoma, in the assay with ACHN renal, in the assay on CCRF-CEM leukemia and with NCI/ADR-RES ovarian was above 100 µM throughout. The TGI in the assay on OVCAR-3 ovarian and with OVCAR-4 ovarian was above 100 µM in each case.
Take `CCOC(=O)c1c(C)n(Cc2ccccc2)c2c1cc1oc(=O)c(=O)n3cnc2c13`: the GI50 in the assay on HOP-92 NSCLC is 2.83 µM; in the assay with SK-MEL-28 melanoma, 40.4 µM; in the assay with NCI-H460 lung, 15.9 µM; with HS 578T breast, 34.3 µM; in the assay with ACHN renal it was 9.91 µM; in the assay with NCI/ADR-RES ovarian it was 18.5 µM. For the same compound, the GI50 in the assay on OVCAR-3 ovarian is 12.3 µM; in the assay on OVCAR-4 ovarian, 19.8 µM. Further, the TGI in the assay with HOP-92 NSCLC was 20.1 µM; with SK-MEL-28 melanoma it was above 50 µM; in the assay with NCI-H460 lung, above 50 µM; in the assay on HS 578T breast, above 50 µM; in the assay with ACHN renal, 39.9 µM; with NCI/ADR-RES ovarian it was above 50 µM. For the same compound, the TGI in the assay with OVCAR-3 ovarian is 34.7 µM; in the assay with OVCAR-4 ovarian it was above 50 µM.

Source of the values: PubChem BioAssay (NCI).
